The text below walks through data of patent US20240262825A1, “PAIN TREATING COMPOUNDS AND USES THEREOF” (BIONOMICS LIMITED, priority 2018, published 2024).

For the test, the target named is T1, hNav1.7 (Homo sapiens, UniProt Q15858).
T1 construct: expressed in transfected cells
Description: hNav1.7 inactivated state (SIS) automated patch clamp electrophysiology. The settings on record: inactivated state protocol; for inhibition at 10 µM: HEK293, Assay Conc. 10 uM; for IC50: estimated eIC50 from 2-3 drug concentrations. Format: cell-based. The method, then:
hNav1.7, hNav1.2, hNav1.3, hNav1.4, hNav1.5, hNav1.6 were stably expressed in human embryonic kidney cells and kept under constant antibiotic selection. For in vitro assays, cells were maintained in appropriate growth medium at 37° C. and 5% CO2 in a humidified incubator.
Nav1.x expressing cells plated in T-25 flasks for 2-3 days prior to use and grown to 70-85% confluence were briefly trypsinized to obtain a single cell suspension of ˜2-3×10^6 cells/ml. All electrophysiological recordings were performed at ambient temperature (21-23° C.) using automated patch clamp (Patchliner, Nanion Technologies GmbH) in the whole-cell configuration using the following solutions: Internal solution contained (in mM): CsCl (50), NaCl (10), CsF (60), EGTA (20), HEPES (10), pH 7.2 KOH, 285 mOsmol·Kg^−1. External (bath) solution contained (in mM): NaCl (140), KCl (4), MgCl2 (1), CaCl2 (2) D-Glucose monohydrate (5), HEPES (10), pH 7.4 NaOH, 298 mOsmol·kg^−1.
For each Nav1.x channel, a steady state inactivation curve was obtained in order to calculate the voltage resulting in 50% channel inactivation (V0.5inact). A 2 pulse protocol was then employed in which cells held at a voltage corresponding to 20 mV more negative to V0.5 inact were depolarised to −10 mV for 20 ms before returning to the previous holding voltage. This test pulse constituted P1 and represents 100% available (non-inactivated) Nav1.x channels. The same cell was then depolarised for 8 s to a voltage corresponding to 7 mV more positive than V0.5inact in order to cause channel inactivation. Following a brief (2 ms) hyperpolarising voltage step to −120 mV (to reset the activation gate), cells were again subjected to a depolarising test pulse (P2) to −10 mV for 20 ms before returning to the holding potential. Each sequence was repeated 6×at 30 s intervals. Using this protocol, control P2 current amplitudes (representing the % channels available following 8 s inactivation) was ˜50% of control P1 current amplitude. 6 repetitions of this recording sequence were made in the control bath solution and then again 2 minutes after compound addition and thereafter at increasing compound concentrations. % inhibition was calculated by (1−(P2drug at repetition 6/P2control at repetition 6))*100. Data were either presented as % block by a single concentration of drug or an estimated eIC50 determined from 2-3 drug concentrations which was determined by fitting data with a sigmoidal dose response curve (variable slope) using GraphPad Prism software (Version 6.0).
All compounds were dissolved in DMSO to 20 mM initially. Subsequent dilutions in DMSO were made to achieve 200×final bath concentrations. DMSO compound stocks were finally diluted 1/200 in bath solution just prior to assay resulting in a final DMSO concentration of 0.5% which was not found to affect control current amplitude.

[1] abbreviates: HEK cells, whole-cell Patchliner, read-out: hNav1.7 SIS (% inh).

Usually IC50 stands for the concentration that gives 50% inhibition.

T1 sequence (Q15858 whole entry): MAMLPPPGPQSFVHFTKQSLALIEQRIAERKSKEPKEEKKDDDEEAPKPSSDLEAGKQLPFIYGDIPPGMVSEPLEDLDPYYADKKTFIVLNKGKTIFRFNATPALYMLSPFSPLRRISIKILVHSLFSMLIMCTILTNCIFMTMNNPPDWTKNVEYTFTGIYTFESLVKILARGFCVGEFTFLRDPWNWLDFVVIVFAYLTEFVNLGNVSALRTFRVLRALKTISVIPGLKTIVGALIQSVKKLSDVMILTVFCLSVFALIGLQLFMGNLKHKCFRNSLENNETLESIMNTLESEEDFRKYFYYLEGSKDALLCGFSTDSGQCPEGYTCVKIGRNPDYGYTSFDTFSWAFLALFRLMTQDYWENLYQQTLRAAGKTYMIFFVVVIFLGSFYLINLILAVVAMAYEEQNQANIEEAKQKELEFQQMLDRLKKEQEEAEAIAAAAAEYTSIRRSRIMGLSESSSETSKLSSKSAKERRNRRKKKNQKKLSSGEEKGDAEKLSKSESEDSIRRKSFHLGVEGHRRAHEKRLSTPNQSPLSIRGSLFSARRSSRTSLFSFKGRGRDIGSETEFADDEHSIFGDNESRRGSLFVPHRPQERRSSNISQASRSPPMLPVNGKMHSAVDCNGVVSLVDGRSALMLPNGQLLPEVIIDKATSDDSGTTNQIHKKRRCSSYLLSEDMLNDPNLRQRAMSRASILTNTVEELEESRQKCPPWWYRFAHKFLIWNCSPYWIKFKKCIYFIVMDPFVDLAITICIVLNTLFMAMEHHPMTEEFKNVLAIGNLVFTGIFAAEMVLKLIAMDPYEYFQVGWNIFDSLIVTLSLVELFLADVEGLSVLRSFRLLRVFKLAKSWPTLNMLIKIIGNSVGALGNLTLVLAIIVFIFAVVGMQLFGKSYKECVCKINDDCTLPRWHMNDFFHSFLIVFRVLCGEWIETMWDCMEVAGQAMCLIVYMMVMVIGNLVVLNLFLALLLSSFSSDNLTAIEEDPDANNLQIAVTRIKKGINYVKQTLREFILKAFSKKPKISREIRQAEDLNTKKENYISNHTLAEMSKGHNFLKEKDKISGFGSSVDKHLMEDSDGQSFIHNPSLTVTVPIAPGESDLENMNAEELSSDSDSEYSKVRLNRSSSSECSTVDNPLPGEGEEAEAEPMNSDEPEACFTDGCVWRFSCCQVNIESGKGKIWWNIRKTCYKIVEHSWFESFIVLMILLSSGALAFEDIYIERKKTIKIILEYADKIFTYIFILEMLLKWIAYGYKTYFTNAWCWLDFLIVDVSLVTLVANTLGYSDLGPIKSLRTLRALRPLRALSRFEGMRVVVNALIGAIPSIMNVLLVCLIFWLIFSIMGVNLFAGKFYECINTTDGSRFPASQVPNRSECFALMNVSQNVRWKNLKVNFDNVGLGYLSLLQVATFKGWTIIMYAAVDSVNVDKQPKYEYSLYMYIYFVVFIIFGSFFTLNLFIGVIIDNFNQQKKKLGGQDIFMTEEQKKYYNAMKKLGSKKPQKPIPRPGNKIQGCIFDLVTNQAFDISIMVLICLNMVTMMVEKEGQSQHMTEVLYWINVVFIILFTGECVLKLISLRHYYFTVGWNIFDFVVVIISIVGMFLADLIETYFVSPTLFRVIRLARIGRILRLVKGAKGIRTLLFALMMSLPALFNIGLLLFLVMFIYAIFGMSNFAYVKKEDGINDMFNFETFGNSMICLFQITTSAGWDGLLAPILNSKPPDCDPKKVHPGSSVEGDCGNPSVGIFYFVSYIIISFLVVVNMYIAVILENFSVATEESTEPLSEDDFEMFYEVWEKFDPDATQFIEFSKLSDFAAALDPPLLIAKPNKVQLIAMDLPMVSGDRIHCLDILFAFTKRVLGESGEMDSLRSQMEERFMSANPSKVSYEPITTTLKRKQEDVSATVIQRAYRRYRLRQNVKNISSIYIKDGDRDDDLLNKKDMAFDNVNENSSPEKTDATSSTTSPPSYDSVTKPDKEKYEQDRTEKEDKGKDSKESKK

Regarding `O=C(NCc1ccc(OCc2ccccc2F)cc1)c1cccnc1` [Compound 1], the inhibition at 10 µM under setting [1] was determined as 41%. Same read-out and setting: for `O=C(NCc1ccc(OCc2ccccc2F)cc1)c1cc2cccn2cn1` [Compound 2] the value was 48%; for `O=C(NCc1ccc(OCc2ccccc2F)cc1)c1cn[nH]c1` [Compound 3], 34%. Same read-out and setting: then `CN(Cc1ccc(OCc2ccccc2F)cc1)C(=O)c1csc(C(F)(F)F)n1` [Compound 4], with 36%; and `Cc1nc(C(=O)NCc2ccc(OCc3ccccc3F)cc2)cs1` [Compound 5], with 39%. The same measure, in the same setting: for `COc1ncc(C(=O)NCc2ccc(OCc3ccccc3F)cc2)cn1` [Compound 6] the value was 47%. As for `CC(C)(Oc1ccc(CNC(=O)c2cccn3cnnc23)cc1)c1ccccc1F` [Compound 7], the inhibition at 10 µM under setting [1] was 35%.

Turning to `Cc1n[nH]c(C(=O)NCc2ccc(OCc3ccccc3F)cc2)n1` [Compound 8], under setting [1], the inhibition at 10 µM came to 44%. The same measure, in the same setting: for `O=C(NCc1ccc(OCc2ccccc2F)cc1)c1nnc(C2CC2)o1` [Compound 9] the value was 35%; for `O=C(NCc1ccc(OCc2ccccc2F)cc1)c1ccn2cnnc2c1` [Compound 10], 30%. Regarding `O=C(NCc1ccc(OCc2ccccc2F)cc1)c1cc[nH]c(=O)c1` [Compound 11], under setting [1], the inhibition at 10 µM was 34%. On the same count and under the same terms, for `Cn1ccc(C(=O)NCc2ccc(OCc3ccccc3F)cc2)cc1=O` [Compound 12] the value was 35%; for `O=C(NCc1ccc(OCc2ccccc2F)cc1)c1cccc2ncnn12` [Compound 13], 42%; for `O=C(NCc1ccc(OCc2ccccc2F)cc1)c1cccn2ncnc12` [Compound 14], 49%. Same read-out and setting: then `O=C(NCc1ccc(OCc2ccccc2F)cc1)c1ccn2ncnc2c1` [Compound 15], with 51%. As for `Cn1cccc(C(=O)NCc2ccc(OCc3ccccc3F)cc2)c1=O` [Compound 16], the inhibition at 10 µM under setting [1] came to 32%. On the same count and under the same terms, then `COc1ncccc1C(=O)NCc1ccc(OCc2ccccc2F)cc1` [Compound 17], with 32%; and `O=C(NCc1ccc(OCc2ccccc2F)cc1)c1ccn2cncc2c1` [Compound 18], with 50%. The same measure, in the same setting: then `O=C(NCc1ccc(OCc2ccccc2F)cc1)c1cccc2cncn12` [Compound 19], with 35%. The same measure, in the same setting: for `O=C(NCc1ccc(OCc2ccccc2F)cn1)c1cccn2cnnc12` [Compound 20] the value was 36%. In the case of `O=C(NCc1ccc(OCc2ccccc2F)cc1)c1cscn1` [Compound 21], the inhibition at 10 µM under setting [1] came out at 52%.

For the molecule `Cc1cnc(C(=O)NCc2ccc(OCc3ccccc3F)cc2)cn1` [Compound 22], the inhibition at 10 µM under setting [1] was 59%. For the molecule `O=C(NCc1ccc(OCc2ccccc2F)cc1)c1csc(C(F)(F)F)n1` [Compound 23], the IC50 was 1.9 µM. Also, under “HEK293, Assay Conc. 3 uM, HEK cells, whole-cell Patchliner, read-out: hNav1.7 SIS (% inh)”, the inhibition at 3 µM was 61%. `COC[C@H](C)N(Cc1ccc(OCc2ccccc2F)cc1)C(=O)c1cn2ccccc2n1` [Compound 24]: the IC50 was 7.2 µM. Further, the inhibition at 10 µM under setting [1] amounted to 63%. As for `O=C(NCc1ccc(OCc2ccccc2F)cc1)c1cn2ccccc2n1` [Compound 25], the IC50 was 5.7 µM. Moreover, the “hNav1.7 SIS (% inh)” value (Assay Conc. 10 uM, HEK cells, whole-cell Patchliner) was determined as 71%. Consider `O=C(NCc1ccc(OCc2ccccc2F)cc1)c1ccn2ccnc2c1` [Compound 26], for which the IC50 is 5.2 µM. Regarding `CN(Cc1ccc(OCc2ccccc2F)cc1)C(=O)c1cn2ccccc2n1` [Compound 27], the IC50 was 4.3 µM. The inhibition at 10 µM under setting [1] turned out to be 92%.

As to `CC(C)(Oc1ccc(CNC(=O)c2cccn3ccnc23)cc1)c1ccccc1F` [Compound 28], the IC50 was 2.6 µM. As for `CC(C)(Oc1ccc(CNC(=O)c2ccn3ccnc3c2)cc1)c1ccccc1F` [Compound 29], the half-inhibitory concentration (IC50) was 6.5 µM.

Consider `O=C(NCc1ccc(OCc2ccccc2F)cc1)c1cccn2nnnc12` [Compound 30], for which the IC50 is 7.5 µM. Same read-out and setting: then `O=C(NCc1ccc(OCc2ccccc2F)cc1)c1nccn2ccnc12` [Compound 31], with 3.2 µM; and `Cn1cnc(C(=O)NCc2ccc(OCc3ccccc3F)cc2)n1` [Compound 32], with 5.9 µM; and `O=C(NCc1ccc(OCc2ccccc2F)cc1)c1nc(C(F)(F)F)cs1` [Compound 33], with 7.5 µM. On the same count and under the same terms, then `Cc1csc(C(=O)NCc2ccc(OCc3ccccc3F)cc2)n1` [Compound 34], with 9.4 µM; and `Cc1nc(C(=O)NCc2ccc(OCc3ccccc3F)cc2)sc1C` [Compound 35], with 5.5 µM; and `Cc1cccc(C(=O)NCc2ccc(OCc3ccccc3F)cc2)n1` [Compound 36], with 5.6 µM. On the same count and under the same terms, for `O=C(NCc1ccc(OCc2ccccc2F)cc1)c1cnc2ccccn12` [Compound 37] the value was 8.9 µM; for `O=C(NCc1ccc(OCc2ccccc2F)cc1)c1cccc2ccnn12` [Compound 38], 3.2 µM; for `O=C(NCc1ccc(OCc2ccccc2F)cc1)c1cccn2cnnc12` [Compound 39], 4.1 µM. Consider `O=C(NCc1ccc(OCc2ccccc2F)cc1)c1cccn2ccnc12` [Compound 40], for which the IC50 is 3.5 µM. Still for that read-out and setting: then `Cc1cc(C(=O)NCc2ccc(OCc3ccccc3F)cc2)n(C)n1` [Compound 41], with 8.9 µM; and `CC(C)c1cc(C(=O)NCc2ccc(OCc3ccccc3F)cc2)n[nH]1` [Compound 42], with 6.2 µM; and `Cc1nc(C(=O)NCc2ccc(OCc3ccccc3F)cc2)cn1C` [Compound 43], with 8.6 µM. For the molecule `COC[C@@H](C)N(Cc1ccc(OCc2ccccc2F)cc1)C(=O)c1cn2ccccc2n1` [Compound 44], the IC50 was 6.3 µM.

Turning to `O=C(NCc1ccc(OCc2ccccc2F)cc1)c1cccn2cncc12` [Compound 45], the IC50 is 7.6 µM. Turning to `O=C(NCc1ccc(OCc2ccccc2F)cc1)c1ccc2cncn2c1` [Compound 46], under setting [1], the inhibition at 10 µM was 34%. Take `O=C(NCc1ccc(OCC2CCCCC2)cc1)c1ccc2cncn2c1` [Compound 47]: the IC50 was 3.6 µM.

Take `O=C(NCc1ccc(OCC2CCCCC2)cc1)c1ccn2ccnc2c1` [Compound 48]: the IC50 is 5.7 µM. With `O=C(NCc1ccc(OCC2CCCCC2)cc1)c1cccn2cnnc12` [Compound 49], the IC50 was 2.5 µM. On the same count and under the same terms, for `O=C(NCc1ccc(OCC2CCCCC2)cc1)c1cn2ccccc2n1` [Compound 50] the value was 3.2 µM; for `O=C(NCc1ccc(OCC2CCCC2)cc1)c1cccn2cnnc12` [Compound 51], 0.98 µM. With `O=C(NCc1ccc(OCC2CCCC2)cc1)c1ccn2ccnc2c1` [Compound 52], the inhibition at 10 µM under setting [1] worked out at 45%. With `O=C(NCc1ccc(OCc2ccccc2F)cc1)c1cn2ccccc2n1` [Compound 53], the inhibition at 10 µM under setting [1] is 56%.
